# Patent US20120077673A1, “Fungicidal Compositions and Methods of Use” (priority 2010, published 2012)
# Assays:
# Type in all cases: in vivo
# Settings in all cases: Triadimenol 30 GA/100 Kg
# Pythium [1] = assay: Cotton field trial, Pythium-infected seeds, seed treatment, control or Pythium-inoculated soil (Example 2)
# Excerpt: The seeds were planted in a field, either in soil that had been inoculated with Pythium (Soil Inoc. with Pythium), or in soil that had not been inoculated with Pythium (Ctrl.), then allowed to grow. Concentrations and compositions of triadimenol, metalaxyl, and saponin are the same as given in Example 1. For cotton, the industry standard dosage of metalaxyl is 15.5 grams of active ingredient per 100 kilograms of seed (15.5 GA/100 Kg). […] The data of TABLE 2 are shown graphically in FIG. 2. The relative densities for the data of TABLE 2 and FIG. 2 were calculated with reference to the 15.5 GA/100 Kg metalaxyl category. As shown by TABLE 2 and FIG. 2, inoculation of the soil with Pythium was correlated with a general decrease in cotton seedling count and density (compare Ctrl. versus Inoc.).
# Pythium [2] = assay: Cucumber field trial, Pythium-infected seeds, seed treatment, control or Pythium-inoculated soil (Example 3); set-up: Density: unit not given here
# Excerpt: The seeds were planted in a field, either in soil that had been inoculated with Pythium (Soil Inoc. with Pythium), or in soil that had not been inoculated with Pythium (Ctrl.), then allowed to grow. Concentrations and compositions of triadimenol, metalaxyl, and saponin are the same as given in Example 1. For cucumber, the industry standard dosage of metalaxyl is 15.5 grams of active ingredient per 100 kilograms of seed (15.5 GA/100 Kg). […] The data of TABLE 3 are shown graphically in FIG. 3. The relative densities for the data of TABLE 3 and FIG. 3 were calculated with reference to the 31 GA/100 Kg metalaxyl category. As shown by TABLE 3 and FIG. 3, inoculation of the soil with Pythium was correlated with a general decrease in cucumber seedling count, density, and relative density (compare Ctrl. versus Inoc.).
# Pythium [3] = assay: Corn hybrids greenhouse trial, Pythium-infected seeds, seed treatment (Example 4)
# Excerpt: Concentrations and compositions of triadimenol, metalaxyl, and saponin are the same as given in Example 1. The data of TABLE 4 are shown graphically in FIGS. 4A and 4B. As shown by TABLE 4 and FIGS. 4A and 4B, pre-treatment of both varieties of corn seeds with 1 GA/100 Kg metalaxyl and 0.6 GA/100 Kg yielded counts similar to those achieved from pre-treatment of seeds with either 2 GA/100 Kg metalaxyl (the industry standard dose for corn) or 7.5 GA/100 Kg metalaxyl.
# Pythium [4] = assay: Corn field trial, Pythium-infected seeds, seed treatment, soil not inoculated (Example 1); set-up: Density: unit not given here
# Excerpt: Unlike other experiments disclosed herein, the soil for the experiment of EXAMPLE 1 was not inoculated with Pythium. Uninfected untreated, and Pythium-infected untreated seeds served as controls. Triadimenol, 15% w/v, is a systemic broad-spectrum fungicide used for cereal seed treatment, but has no activity against Pythium spp. Metalaxyl, 28.35% w/v, provides systemic protection for the seed, roots, and emerging plants against Pythium, systemic downy mildew, and Phytophthora. For corn, the industry standard dosage of metalaxyl is 2 grams of active ingredient per 100 kilograms of seed (2 GA/100 Kg). Saponin, 49.65% v/v extract of Chenopodium quinoa saponins, contained approximately equimolar amounts of triterpene bidesmosidic glycosides of oleanolic acid, hederagenin, and phytolaccagenic acid. […] In TABLE 1, “Vigor” represents a subjective measure of plant health and is based on uniformity, consistent plant mass, and consistent plant spacing, with lower scores being more favorable than higher scores. The data of TABLE 1 are shown graphically in FIGS. 1A and 1B. As shown by TABLE 1 and FIGS. 1A and 1B, the count and the density increased—over time—for all treatment conditions. The relative density, however, decreased over time for the […] and metalaxyl (2 GA/100 kg) categories. The relative density remained the same for the untreated/uninfected category because it provided the reference point (i.e., the relative densities were calculated with reference to the untreated/uninfected category).
# [5] = 34 DAA, Soil Inoc. with Pythium
# [6] = 46 DAA, Soil Inoc. with Pythium
# [7] = 18 DAA, Soil Inoc. with Pythium
# [8] = 33 DAA, Soil Inoc. with Pythium
structure (smiles),measurement,setting,value
CC(C)(C)C(O)C(Oc1ccc(Cl)cc1)n1cncn1 (stereo not shown) [Triadimenol],Count,"Pythium [1]; 34 DAA, Ctrl. soil",39.5
same,Density,"Pythium [1]; 34 DAA, Ctrl. soil",79
same,Relative Density,"Pythium [1]; 34 DAA, Ctrl. soil",106.8
same,Count,Pythium [1]; [5],18.3
same,Density,Pythium [1]; [5],36.5
same,Relative Density,Pythium [1]; [5],73
same,Count,"Pythium [1]; 46 DAA, Ctrl. soil",40.3
same,Density,"Pythium [1]; 46 DAA, Ctrl. soil",80.5
same,Relative Density,"Pythium [1]; 46 DAA, Ctrl. soil",107.3
same,Count,Pythium [1]; [6],17.5
same,Density,Pythium [1]; [6],35
same,Relative Density,Pythium [1]; [6],71.4
same,Count,"Pythium [2]; 18 DAA, Ctrl. soil",28
same,Density,"Pythium [2]; 18 DAA, Ctrl. soil",56
same,Relative Density,"Pythium [2]; 18 DAA, Ctrl. soil",80
same,Count,Pythium [2]; [7],10
same,Density,Pythium [2]; [7],20
same,Relative Density,Pythium [2]; [7],34.5
same,Count,"Pythium [2]; 33 DAA, Ctrl. soil",28.3
same,Density,"Pythium [2]; 33 DAA, Ctrl. soil",56.5
same,Relative Density,"Pythium [2]; 33 DAA, Ctrl. soil",83.1
same,Count,Pythium [2]; [8],4.3
same,Density,Pythium [2]; [8],8.5
same,Relative Density,Pythium [2]; [8],16.2
same,"Count, Hybrid A",Pythium [3]; Day 2,62
same,"Count, Hybrid B",Pythium [3]; Day 2,24
same,"Count, Hybrid A",Pythium [3]; Day 7,72
same,"Count, Hybrid B",Pythium [3]; Day 7,40
same,"Count, Hybrid A",Pythium [3]; Day 14,74
same,"Count, Hybrid B",Pythium [3]; Day 14,40
same,Count,Pythium [4]; 30 DAA,21
same,Density,Pythium [4]; 30 DAA,25.9
same,Relative Density,Pythium [4]; 30 DAA,69.2
same,Count,Pythium [4]; 46 DAA,60
same,Density,Pythium [4]; 46 DAA,74.4
same,Relative Density,Pythium [4]; 46 DAA,96.4
same,Vigor,"Pythium [4]; 46 DAA, subjective score, lower more favorable",4.50
